Data published in patent US5709816A, “Singlet oxygen quenchers and external compositions containing the same” (Kao Corporation, priority 1899, dated 1998).

Assays:
[1] = tested on: skin of white guinea pigs; experiment: Inhibition of erythema formation (UV-A/UV-B irradiation); format: in vivo; conditions: Cavia porcellus, light or radiation study, topical; 5 wt. % in ethanol; UV-A/UV-B 40 J/cm^2; determined after 1 day and 2 days; read-out: Erythema inhibition rate
Description: Inhibition of erythema formation
The hair of white guinea pigs (8 weeks old, female) hair was removed by shaving, and an ethanol solution containing a test substance (5 wt. %) was applied to the shaved part of each animal. A mixture of UV-A/UV-B (40 J/cm^2, measured at 365 nm using a UV-radiometer UVR-305/365-D, Torex Co.) was irradiated onto the back of each guinea pig using a solar simulator Model 1600 (Solar Light Co.). After 1 day and 2 days of irradiation, the erythema formation was visually determined by the standards of the Japanese Dermatological Association to obtain erythema inhibition ratios.

[2] = tested on: E. coli vector pUC119 DNA; format: biochemical; conditions: 0.01 wt. % in ethanol; 100 mM porphyrin; UV-A/UV-B 3 J/cm^2; agarose gel electrophoresis
Protocol: To a mixture of […] E. coli vector pUC119 DNA and 100 mM porphyrin, an ethanol solution containing a test substance (0.01 wt. %) was added. A mixture of UV-A/UV-B (3 J/cm^2, measured at 365 nm) was irradiated onto the resultant DNA mixture using a solar simulator. A 2.5-fold amount of ethanol and a 0.1-fold amount of 5M sodium acetate were added and the DNA was precipitated. The DNA pellet was dissolved in a TE buffer, and analyzed through agarose gel electrophoresis. Inhibition of DNA single strand breaks formation was measured.

[3] = tested on: sunburn cells in skin of ICR/HR mice; experiment: Inhibition of sunburn cell formation (UV-B irradiation); format: in vivo; conditions: Mus musculus, light or radiation study, topical; 1 wt. % in ethanol; UV-B 100 mJ/cm^2; 24 hours later; read-out: Inhibition ratio regarding sunburn cell formation
Description: Inhibition of sunburn cell formation
Ethanol solution of a test substance (1 wt. %) was applied onto the skin of ICR/HR mice. UV-B (100 mJ/cm^2) was irradiated onto the skin (health lamp SE20/SLE, Toshiba). Twenty-four hours later, the skin was biopsied and stained using hematoxylin & eosin, after which the number of sunburn cells were counted under microscope.

[4] = tested on: collagen; experiment: Inhibition of protein denaturation (collagen crosslinking, porphyrin + UV); format: biochemical; conditions: 0.1 wt. % in ethanol; collagen 0.5 mg/ml, porphyrin 100 mM; UV-A/UV-B 3 J/cm^2; SDS-PAGE
Protocol: Inhibition of protein denaturation
An ethanol solution containing a test substance (0.1 wt. %) was added to a mixture of collagen (0.5 mg/ml) and 2 porphyrin (100 mM). A mixture of UV-A/UV-B (3 J/cm^2, measured at 365 nm) was irradiated onto the resultant mixture using a solar simulator. The irradiated mixture was applied to SDS-PAGE electrophoresis, and collagen crosslinking inhibition ratios were measured.

[5] = tested on: skin of ICR/HR mice; experiment: Inhibition of wrinkle formation in the skin of mice (UV-B, 16 weeks); format: in vivo, ICR/HR mouse; conditions: Mus musculus, topical, 2688 h; 1 wt. % in ethanol; 1 MED UV-B five times per week over sixteen weeks
Description: Inhibition of wrinkle formation in the skin of mice
To the back of each ICR/HR mouse (female, 6 weeks old), an ethanol solution containing a test substance (1 wt. %) was applied. One (1) MED of UV-B was irradiated thereto using a health lamp SL20-SLE (Toshiba). Irradiation was repeated five times per week over sixteen weeks. Wrinkle formation was visually scored using the following five rankings.
1: Mild and questionable wrinkles are observed
2: Mild but clear and definite wrinkles are observed
3: Moderate wrinkles are observed
4: Severe wrinkles are observed
Using the above rankings, wrinkle formations were scored and the inhibition ratios were determined by the division by the blank score.

[6] = tested on: skin of colored guinea pigs; experiment: Inhibition of delayed darkening (UV-A/UV-B irradiation); format: in vivo; conditions: 7 wt. % in ethanol; UV-A/UV-B 50 J/cm^2; 14 days after irradiation; color difference meter
Protocol: Inhibition of delayed darkening
The hair of colored guinea pigs (8 week old, female) hair was removed, and an ethanol solution containing a test substance (7 wt. %) was applied to the skin. A mixture of UV- A/UV-B rays (50 J/cm^2, measured at 365 nm using a UV-radiometer UVR-305/365-D, Torex Co.) was irradiated onto the back of each guinea pig using a solar simulator. Fourteen days after irradiation, delayed darkening inhibition ratios were measured using a color difference meter (Model 1001P. Nippon Kogyo Co., Ltd.).

[7] = tested on: cultured human fibroblasts; experiment: Inhibition of lipid peroxide formation in cultured human fibroblasts (TBA method); format: cell-based; conditions: Homo sapiens, Fibroblast, light or radiation study, 0.01 wt. % in ethanol, 100 mM porphyrin, UV-A/UV-B 1 J/cm^2, read-out: Inhibition ratio regarding lipid peroxide formation
Protocol: Inhibition of lipid peroxide formation
Cultured human fibroblasts were combined with 100 mM porphyrin and a test substance (0.01 wt. %, in ethanol). A mixture of UV-A/UV-B rays (1 J/cm^2, measurements performed at 365 nm) was irradiated onto the resultant cell culture using a solar simulator. The fibroblasts were collected after the trypsin treatment, then extracted hydrophobic substances using acetone. The extracted substances were dried under nitrogen to prepare cellular lipid samples. A TBA method was used to measure lipid peroxides in cells and inhibition ratio by a test substance.

| Compound | inhibition in vivo at 5 % [1] [%] | Prevention of DNA damage [2] [%] | inhibition in vivo at 1 % [3] [%] | Protein denaturation inhibition ratio [4] [%] | inhibition in vivo at 1 % [5] [%] | ΔΔL value [6] | inhibition at 0.01 wt% [7] [%] |
| --- | --- | --- | --- | --- | --- | --- | --- |
| COCC(O)CN(C)c1ccc(OC)cc1 (stereo not shown) [Compound (1), N-(2-hydroxy-3-methoxypropyl)-N-methyl-p-anisidine] | 68 | 69 | 79 | 85 | 47 | 1.7 | 51 |
| CCCCN(CC(O)COC)c1ccc(OC)cc1 (stereo not shown) [Compound (2), N-n-butyl-N-(2-hydroxy-3-methoxypropyl)-p-anisidine] | 42 | 50 | 53 | 62 | 38 | 1.1 | 43 |
| CCCCCCCCN(CC(O)COC)c1ccc(OC)cc1 (stereo not shown) [Compound (3), N-(2-hydroxy-3-methoxypropyl)-N-n-octyl-p-anisidine] | 71 | 71 | 86 | 93 | 58 | 2.0 | 60 |
| COCC(O)CN(CC(O)COC)c1ccc(C)cc1 (stereo not shown) [Compound (4), N,N-bis(2-hydroxy-3-methoxypropyl)-p-toluidine] | 69 | 69 | 81 | 87 | 51 | 1.8 | 57 |
| CCCCN(CC(O)COC)c1ccc(C)cc1 (stereo not shown) [Compound (5), N-n-butyl-N-(2-hydroxy-3-methoxypropyl)-p-toluidine] | 65 | 66 | 65 | 81 | 43 | 1.5 | 48 |
| CCCCN(CC(O)COC)c1ccccc1 (stereo not shown) [Compound (6), N-n-butyl-N-(2-hydroxy-3-methoxypropyl)aniline] | 37 | 47 | 46 | 53 | 36 | 1.1 | 40 |
| CCCCN(CC(O)COC)c1ccc(C)c(C)c1 (stereo not shown) [Compound (32), N-n-butyl-N-(2-hydroxy-3-methoxypropyl)-3,4-xylidine] | 53 | 61 | 61 | 88 | 43 | 1.3 | 54 |
| Cc1ccc(N(C)CC(O)CO)cc1 (stereo not shown) [Compound (33), N-(2,3-dihydroxypropyl)-N-methyl-p-toluidine] | 43 | 48 | 54 | 44 | 35 | 1.1 | 47 |
| CCCCN(CC(O)CO)c1ccc(C)c(C)c1 (stereo not shown) [Compound (34), N-n-butyl-N-(2,3-dihydroxypropyl)-3,4-xylidine] | 65 | 64 | 64 | 61 | 43 | 1.3 | 52 |
| CCCCCCCCN(CC(O)CO)c1ccc(OC)cc1 (stereo not shown) [Compound (35), N-(2,3-dihydroxypropyl)-N-octyl-p-anisidine] | 78 | 79 | 81 | 84 | 42 | 1.9 | 56 |
